What was measured:
IRAK4 [1] = target: T1, IRAK4 (Homo sapiens (Human), UniProt Q9NWZ3); experiment: Deep tandem mass tag (TMT) proteomics in OCI-LY10; format: cell-based; details: OCI-LY10, 8 hours
Protocol: Total protein was isolated from OCI-LY10 cells treated with 10 nM I-30, 30 nM I-30 and 30 nM 2-{2-[(cyclopropylmethyl)amino]pyridin-4-yl}-N-[3-(difluoromethyl)-1-[4-({[2-(2-{3-[3-methyl-1-(1-methyl-2,6-dioxopiperidin-3-yl)-2-oxo-2,3-dihydro-1H-1,3-benzodiazol-4-yl]propoxy}ethoxy)ethyl]amino}methyl)phenyl]-1H-pyrazol-4-yl]-1,3-oxazole-4-carboxamide for 8 hours. Vehicle (DMSO)-treated cells were used as controls. Protein lysates, 2 biological replicates per condition, were prepared at 4 C in 8M urea, 75 mM NaCl, 1 mM EDTA in 50 mM Tris HCl (pH 8), 10 mM NaF, phosphatase inhibitor cocktail 2 (1:100; Sigma, P5726) and cocktail 3 (1:100; Sigma, P0044), 2 μg/mL aprotinin (Sigma, A6103), 10 μg/mL Leupeptin (Roche, 11017101001), and 1 mM PMSF (Sigma, 78830). Lysates were spun at 20,000 rcf for 10 min and supernatant (containing extracted proteins) was transferred to a clean microcentrifuge tube. Protein concentrations were determined using the Pierce BCA assay. […] Online fractionation was performed using a nanoflow Proxeon EASY-nLC 1200 UHPLC system (Thermo Fisher Scientific) and separated peptides were analyzed on a benchtop Orbitrap Q Exactive plus mass spectrometer (Thermo Fisher Scientific). All data were analyzed using Spectrum Mill software package (Agilent Technologies). […] In total, 10,992 proteins were quantified. […]

IRAK4 [2] = target: T1, IRAK4; experiment: IRAK4 quantification in xenograft tumors by UPLC-MS/MS (tumor PD); format: in vivo, mouse; details: OCI-LY10 xenograft-bearing mice, oral dosing; FIG. 14
Protocol: At termination: At pre-determined time points based on study design, animals were humanely sacrificed by CO2. Blood was obtained by cardiac puncture for isolation of plasma, any residual tumor was removed and divided in 2 portions, 1 (minimal) for terminal compound exposure and 1 to determine IRAK4 and actin. Compound was determined in tumor and plasma using LC/MS with calibrated standards.
Interleukin-1 receptor-associated kinase 4 (IRAK4) was quantified in human OCI-LY10 and TMD8 xenograft tumors, together with mouse splenocytes and peripheral blood mononuclear cells (PBMCs), by ultra-performance liquid chromatography-tandem mass spectrometry (UPLC-MS/MS). The concentrations of IRAK4 were normalized by the concentrations of actin in the respective samples. […]
Signature peptide concentrations were quantitated using a sensitive and specific targeted LC-MS/MS method. […]
Signature peptide levels (LAVAIK, […]) were quantified by UPLC-MS/MS. […] A SCIEX TripleTOF 6600 LC-MS/MS system was used for the detection and quantitation of analytes. The intensities of the analytes and ISs were determined by integration of extracted ion peak areas using Analyst and MultiQuant 3.0 software. […] Measured peptide levels were corrected for sample work up and converted to actual protein concentrations in ng/mg total protein of cell lysate. […]

T1 sequence (Q9NWZ3 whole entry): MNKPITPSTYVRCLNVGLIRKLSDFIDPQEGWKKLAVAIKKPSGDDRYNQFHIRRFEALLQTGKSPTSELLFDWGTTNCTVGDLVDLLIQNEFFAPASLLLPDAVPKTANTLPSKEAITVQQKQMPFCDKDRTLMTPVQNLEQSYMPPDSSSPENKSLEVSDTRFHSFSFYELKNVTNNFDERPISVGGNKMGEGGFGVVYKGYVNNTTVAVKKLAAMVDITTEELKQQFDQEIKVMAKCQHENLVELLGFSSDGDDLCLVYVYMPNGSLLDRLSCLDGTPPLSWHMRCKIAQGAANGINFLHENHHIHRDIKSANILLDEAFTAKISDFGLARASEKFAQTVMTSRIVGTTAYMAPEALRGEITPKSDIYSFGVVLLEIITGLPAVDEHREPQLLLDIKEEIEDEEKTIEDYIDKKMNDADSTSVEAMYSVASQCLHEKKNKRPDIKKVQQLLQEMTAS

| Compound | selectivity for IRAK4 vs. other proteins in OCI-LY10 (proteomics) (IRAK4 [1]) | degradation of IRAK4 correlating with tumor regression (IRAK4 [2]) |
| --- | --- | --- |
| CN(CCCOCCCc1cccc2c1n(C)c(=O)n2C1CCC(=O)NC1=O)C[C@H]1CC[C@H](n2cc(NC(=O)c3coc(-c4ccnc(NCC5CC5)c4)n3)c(C(F)F)n2)CC1 (mixture of isomers) [I-30, 2-[2-(Cyclopropylmethylamino)-4-pyridyl]-N-[3-(difluoromethyl)-1-[4-[[3-[3-[1-(2,6-dioxo-3-piperidyl)-3-methyl-2-oxo-benzimidazol-4-yl]propoxy]propyl-methyl-amino]methyl]cyclohexyl]pyrazol-4-yl] oxazole-4-carboxamide] | highly selective for IRAK4 vs. >10,000 other proteins |  |
| CN(C[C@H]1CC[C@H](n2cc(NC(=O)c3coc(-c4ccnc(NCC5CC5)c4)n3)c(C(F)F)n2)CC1)C1CCN(Cc2cccc3c2n(C)c(=O)n3C2CCC(=O)NC2=O)CC1 (some centres unmarked) [I-75, 2-(2-((cyclopropylmethyl)amino)pyridin-4-yl)-N-(3-(difluoromethyl)-1-((1r,4r)-4-(((1-((1-(2,6-dioxopiperidin-3-yl)-3-methyl-2-oxo-2,3-dihydro-1H-benzo[d]imidazol-4-yl)methyl)piperidin-4-yl)(methyl)amino)methyl)cyclohexyl)-1H-pyrazol-4-yl)oxazole-4-carboxamide] |  | > 75% |
